According to ChEMBL document CHEMBL5212743, “Selectivity Literature for EUbOPEN Chemogenomics Library wave 3” (2023):
Each block holds one compound with its values, some of them ahead of it.

Key:
[1] = target: Protein AF-9 (Homo sapiens) (UniProt P42568)
[2] = target: T1, Protein AF-9 (Homo sapiens, UniProt P42568)
[3] = target: T2, YEATS domain-containing protein 2 (Homo sapiens, UniProt Q9ULM3); test: Selectivity interaction (Enzyme panel (PDEs, ion channels, and GPCRS, HTRF assay)) EUB0000731a YEATS2
T2 sequence (Q9ULM3 whole entry): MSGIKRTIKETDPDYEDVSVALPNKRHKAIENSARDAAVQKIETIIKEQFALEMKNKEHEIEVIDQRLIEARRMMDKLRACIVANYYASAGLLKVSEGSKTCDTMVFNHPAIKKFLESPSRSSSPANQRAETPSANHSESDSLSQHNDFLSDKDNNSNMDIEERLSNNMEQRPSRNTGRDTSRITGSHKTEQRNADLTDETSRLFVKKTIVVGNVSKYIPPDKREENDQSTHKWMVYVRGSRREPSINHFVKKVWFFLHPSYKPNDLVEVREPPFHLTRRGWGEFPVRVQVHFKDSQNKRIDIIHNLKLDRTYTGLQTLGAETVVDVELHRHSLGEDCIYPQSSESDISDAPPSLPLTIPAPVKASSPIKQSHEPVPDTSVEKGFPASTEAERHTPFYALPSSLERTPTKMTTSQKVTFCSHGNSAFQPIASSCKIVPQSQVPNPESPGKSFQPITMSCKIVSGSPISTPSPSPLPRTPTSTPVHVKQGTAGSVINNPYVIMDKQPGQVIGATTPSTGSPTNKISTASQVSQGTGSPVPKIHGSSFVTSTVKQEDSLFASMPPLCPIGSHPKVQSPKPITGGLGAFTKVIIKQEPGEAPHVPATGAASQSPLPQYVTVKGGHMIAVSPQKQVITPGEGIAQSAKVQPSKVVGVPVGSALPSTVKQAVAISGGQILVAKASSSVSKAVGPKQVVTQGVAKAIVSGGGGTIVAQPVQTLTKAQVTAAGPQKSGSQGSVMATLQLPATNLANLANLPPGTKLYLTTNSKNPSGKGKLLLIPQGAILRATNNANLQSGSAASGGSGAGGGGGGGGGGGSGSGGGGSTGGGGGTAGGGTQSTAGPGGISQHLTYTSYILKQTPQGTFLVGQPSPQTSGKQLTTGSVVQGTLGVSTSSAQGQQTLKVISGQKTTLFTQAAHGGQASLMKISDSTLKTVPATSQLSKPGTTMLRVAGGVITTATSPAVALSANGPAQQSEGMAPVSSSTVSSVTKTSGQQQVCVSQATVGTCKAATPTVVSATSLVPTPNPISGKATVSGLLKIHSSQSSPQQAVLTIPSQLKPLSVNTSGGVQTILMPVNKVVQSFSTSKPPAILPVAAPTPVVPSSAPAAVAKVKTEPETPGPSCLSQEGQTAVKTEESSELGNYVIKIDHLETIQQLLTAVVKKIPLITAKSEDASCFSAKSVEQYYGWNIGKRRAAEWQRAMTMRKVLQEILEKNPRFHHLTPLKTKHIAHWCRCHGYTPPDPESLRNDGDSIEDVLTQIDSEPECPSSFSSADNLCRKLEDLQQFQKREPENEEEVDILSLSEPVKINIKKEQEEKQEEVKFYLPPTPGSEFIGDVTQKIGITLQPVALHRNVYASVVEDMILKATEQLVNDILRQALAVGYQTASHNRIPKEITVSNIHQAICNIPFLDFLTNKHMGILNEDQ

[4] = target: T3, YEATS domain-containing protein 4 (Homo sapiens, UniProt O95619); test: Selectivity interaction (Enzyme panel (PDEs, ion channels, and GPCRS, HTRF assay)) EUB0000731a YEATS4
[5] = target: T1, Protein AF-9; remark: listed apart in the source
[6] = target: Protein ENL (Homo sapiens) (UniProt Q03111); test: Selectivity interaction (DSF assay) EUB0000731a MLLT1
[7] = target: T4, Adenosine receptor A1 (Homo sapiens) (UniProt P30542); details: at 10 µM
T4 sequence (whole entry): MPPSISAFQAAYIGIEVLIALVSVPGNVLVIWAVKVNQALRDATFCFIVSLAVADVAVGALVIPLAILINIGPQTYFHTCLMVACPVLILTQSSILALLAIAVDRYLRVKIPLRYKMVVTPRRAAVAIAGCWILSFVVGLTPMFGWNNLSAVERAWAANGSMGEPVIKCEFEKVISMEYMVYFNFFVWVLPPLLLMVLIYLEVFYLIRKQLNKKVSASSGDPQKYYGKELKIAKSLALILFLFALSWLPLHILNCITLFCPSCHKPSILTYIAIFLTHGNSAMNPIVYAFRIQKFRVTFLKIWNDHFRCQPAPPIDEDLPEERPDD

[8] = target: Bromodomain-containing protein 1 (Homo sapiens) (UniProt O95696)
[9] = target: T5, Adenosine receptor A3 (Homo sapiens) (UniProt P0DMS8); details: at 10 µM
T5 sequence (whole entry): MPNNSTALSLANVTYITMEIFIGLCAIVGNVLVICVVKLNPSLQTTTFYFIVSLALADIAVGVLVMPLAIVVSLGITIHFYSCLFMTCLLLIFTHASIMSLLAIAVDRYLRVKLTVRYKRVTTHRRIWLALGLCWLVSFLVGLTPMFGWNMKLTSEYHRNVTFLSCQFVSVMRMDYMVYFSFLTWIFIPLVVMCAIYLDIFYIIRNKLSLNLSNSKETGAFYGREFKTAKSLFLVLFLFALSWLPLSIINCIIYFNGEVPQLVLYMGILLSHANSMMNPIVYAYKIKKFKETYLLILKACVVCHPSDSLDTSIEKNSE

[10] = target: Bromodomain-containing protein 4 (Homo sapiens, UniProt O60885)
[11] = target: Peregrin (Homo sapiens) (UniProt P55201)
[12] = target: Bromodomain and PHD finger-containing protein 3 (Homo sapiens) (UniProt Q9ULD4)
[13] = target: Bromodomain-containing protein 1 (Homo sapiens, UniProt O95696); test: Selectivity interaction (AlphaScreen) EUB0000323b BRD1
[14] = target: 5-hydroxytryptamine receptor 6 (Homo sapiens) (UniProt P50406); details: at 10 µM
[15] = target: T2, YEATS domain-containing protein 2; test: Selectivity interaction (HTRF-based inhibition assay) EUB0000732a YEATS2
[16] = target: T3, YEATS domain-containing protein 4; test: Selectivity interaction (HTRF-based inhibition assay) EUB0000732a YEATS4
[17] = target: Vascular endothelial growth factor receptor 2 (Homo sapiens, UniProt P35968); test: Selectivity interaction (Kinase panel (literature or Upstate/Millipore)) EUB0000665a KDR
[18] = target: 5-hydroxytryptamine receptor 2B (Homo sapiens, UniProt P41595); test: Selectivity interaction (CEREP panel (cellular receptors and 30 other enzymes)) EUB0000199c HTR2B
[19] = target: T6, Alpha-1A adrenergic receptor (Homo sapiens, UniProt P35348); test: Selectivity interaction (CEREP panel (cellular receptors and 30 other enzymes)) EUB0000199c ADRA1A
T6 sequence (P35348 whole entry): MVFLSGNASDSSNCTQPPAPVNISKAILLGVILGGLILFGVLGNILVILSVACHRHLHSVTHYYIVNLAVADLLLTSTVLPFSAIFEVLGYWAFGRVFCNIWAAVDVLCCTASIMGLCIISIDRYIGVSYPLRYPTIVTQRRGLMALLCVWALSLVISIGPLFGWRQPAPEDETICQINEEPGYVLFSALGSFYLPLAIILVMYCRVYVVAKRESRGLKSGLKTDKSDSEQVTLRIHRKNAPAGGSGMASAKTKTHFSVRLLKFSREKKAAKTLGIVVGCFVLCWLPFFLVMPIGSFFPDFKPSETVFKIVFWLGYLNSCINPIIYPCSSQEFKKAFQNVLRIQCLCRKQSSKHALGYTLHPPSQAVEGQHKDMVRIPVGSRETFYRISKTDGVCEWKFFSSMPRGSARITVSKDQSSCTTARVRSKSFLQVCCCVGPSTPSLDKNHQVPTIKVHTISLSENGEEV

[20] = target: T7, Alpha-1B adrenergic receptor (Homo sapiens, UniProt P35368); test: Selectivity interaction (CEREP panel (cellular receptors and 30 other enzymes)) EUB0000199c ADRA1B
T7 sequence (P35368 whole entry): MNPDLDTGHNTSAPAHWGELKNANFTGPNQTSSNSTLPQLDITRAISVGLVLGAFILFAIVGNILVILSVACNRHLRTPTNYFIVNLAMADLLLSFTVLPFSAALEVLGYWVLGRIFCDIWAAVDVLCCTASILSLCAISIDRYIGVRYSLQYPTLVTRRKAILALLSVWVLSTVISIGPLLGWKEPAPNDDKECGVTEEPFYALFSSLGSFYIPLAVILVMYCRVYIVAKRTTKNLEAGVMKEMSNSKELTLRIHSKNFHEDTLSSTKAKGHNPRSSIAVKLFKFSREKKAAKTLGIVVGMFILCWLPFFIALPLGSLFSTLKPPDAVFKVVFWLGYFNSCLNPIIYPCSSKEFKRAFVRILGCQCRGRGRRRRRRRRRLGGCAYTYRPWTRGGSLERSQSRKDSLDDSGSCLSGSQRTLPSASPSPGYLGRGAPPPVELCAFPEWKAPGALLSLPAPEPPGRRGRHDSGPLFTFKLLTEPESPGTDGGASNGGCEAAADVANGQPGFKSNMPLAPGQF

[21] = target: SWI/SNF-related matrix-associated actin-dependent regulator of chromatin subfamily A member 2 (Homo sapiens) (UniProt P51531); test: Selectivity interaction (Bromodomain panel (DSF assay)) EUB0000199c SMARCA2
[22] = target: Kappa-type opioid receptor (Homo sapiens, UniProt P41145); test: Selectivity interaction (CEREP panel (cellular receptors and 30 other enzymes)) EUB0000199c OPRK1
[23] = target: Acetylcholinesterase (Homo sapiens, UniProt P22303); test: Selectivity interaction (PSP Principial panel 20118+ (panel of GPCRs, transporter, and ion channels)) EUB0000283b ACHE
[24] = target: T2, YEATS domain-containing protein 2; test: Selectivity interaction (Bromodomain panel (TR-FRET assay)) EUB0000283b YEATS2
[25] = target: T3, YEATS domain-containing protein 4; test: Selectivity interaction (Bromodomain panel (TR-FRET assay)) EUB0000283b YEATS4
[26] = target: Tribbles homolog 2 (Homo sapiens, UniProt Q92519); test: Selectivity interaction (PSP kinase safety panel (Eurofins)) EUB0000283b TRIB2
[27] = target: T8, Protein ENL (Homo sapiens, UniProt Q03111); test: Selectivity interaction (BioLayer Interferometry assay (BLI)) EUB0000283b MLLT1
[28] = target: Muscarinic acetylcholine receptor M2 (Homo sapiens, UniProt P08172); test: Selectivity interaction (PSP Principial panel 20118+ (panel of GPCRs, transporter, and ion channels)) EUB0000283b CHRM2
[29] = target: Serine/threonine-protein kinase pim-1 (Homo sapiens, UniProt P11309); test: Selectivity interaction (PSP kinase safety panel (Eurofins)) EUB0000283b PIM1
[30] = target: Sodium-dependent noradrenaline transporter (Homo sapiens, UniProt P23975); test: Selectivity interaction (PSP Principial panel 20118+ (panel of GPCRs, transporter, and ion channels)) EUB0000283b SLC6A2
[31] = target: T8, Protein ENL; test: Selectivity interaction (ITC) EUB0000283b MLLT1
[32] = target: Chromatin remodeling regulator CECR2 (Homo sapiens, UniProt Q9BXF3); test: Selectivity interaction (Bromodomain panel (TR-FRET assay)) EUB0000283b CECR2
[33] = target: Histamine H3 receptor (Homo sapiens, UniProt Q9Y5N1); test: Selectivity interaction (PSP Principial panel 20118+ (panel of GPCRs, transporter, and ion channels)) EUB0000283b HRH3

T3 sequence (O95619 whole entry, the tested form may be a part): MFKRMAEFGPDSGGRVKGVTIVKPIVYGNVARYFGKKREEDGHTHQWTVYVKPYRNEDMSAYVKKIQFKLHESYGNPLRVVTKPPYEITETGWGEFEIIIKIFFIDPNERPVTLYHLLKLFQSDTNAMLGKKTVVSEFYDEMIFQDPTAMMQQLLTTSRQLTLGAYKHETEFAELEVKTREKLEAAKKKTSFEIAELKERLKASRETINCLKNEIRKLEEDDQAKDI
T8 sequence (Q03111 whole entry): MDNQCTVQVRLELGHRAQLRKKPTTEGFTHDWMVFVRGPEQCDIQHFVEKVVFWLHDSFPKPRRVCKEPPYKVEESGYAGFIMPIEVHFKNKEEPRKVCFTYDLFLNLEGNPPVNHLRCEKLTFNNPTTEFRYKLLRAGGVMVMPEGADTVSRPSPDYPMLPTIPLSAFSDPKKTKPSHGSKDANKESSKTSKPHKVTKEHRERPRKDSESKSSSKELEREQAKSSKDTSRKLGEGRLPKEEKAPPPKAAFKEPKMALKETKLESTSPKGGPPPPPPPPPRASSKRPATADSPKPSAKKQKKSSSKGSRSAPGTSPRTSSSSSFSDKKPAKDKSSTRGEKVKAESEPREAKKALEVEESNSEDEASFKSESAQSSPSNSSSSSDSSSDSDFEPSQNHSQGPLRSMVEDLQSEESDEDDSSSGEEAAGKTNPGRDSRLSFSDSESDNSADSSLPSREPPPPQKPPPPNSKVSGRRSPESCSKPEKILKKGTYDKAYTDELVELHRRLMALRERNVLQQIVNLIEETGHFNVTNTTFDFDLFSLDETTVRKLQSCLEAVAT
T1 sequence (P42568 whole entry, the tested form may be a part): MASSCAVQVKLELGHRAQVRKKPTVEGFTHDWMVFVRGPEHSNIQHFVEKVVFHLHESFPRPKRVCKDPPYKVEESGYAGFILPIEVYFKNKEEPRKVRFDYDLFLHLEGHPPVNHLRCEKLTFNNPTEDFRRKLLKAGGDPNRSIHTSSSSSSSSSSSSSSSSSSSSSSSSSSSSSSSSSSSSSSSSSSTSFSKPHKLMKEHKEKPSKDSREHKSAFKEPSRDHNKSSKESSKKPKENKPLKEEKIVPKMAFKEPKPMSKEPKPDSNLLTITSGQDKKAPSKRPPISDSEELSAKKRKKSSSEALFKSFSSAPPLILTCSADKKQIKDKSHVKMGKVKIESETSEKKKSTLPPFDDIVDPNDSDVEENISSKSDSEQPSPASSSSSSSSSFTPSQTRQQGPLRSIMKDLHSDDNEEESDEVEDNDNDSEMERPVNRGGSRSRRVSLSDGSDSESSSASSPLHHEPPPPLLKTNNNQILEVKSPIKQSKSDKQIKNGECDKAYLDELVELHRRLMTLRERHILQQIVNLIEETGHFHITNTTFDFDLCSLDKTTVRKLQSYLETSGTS
Protein ENL (Homo sapiens), sequence (Q03111 whole entry): as the sequence (Q03111 whole entry) above
Chromatin remodeling regulator CECR2, sequence (Q9BXF3 whole entry): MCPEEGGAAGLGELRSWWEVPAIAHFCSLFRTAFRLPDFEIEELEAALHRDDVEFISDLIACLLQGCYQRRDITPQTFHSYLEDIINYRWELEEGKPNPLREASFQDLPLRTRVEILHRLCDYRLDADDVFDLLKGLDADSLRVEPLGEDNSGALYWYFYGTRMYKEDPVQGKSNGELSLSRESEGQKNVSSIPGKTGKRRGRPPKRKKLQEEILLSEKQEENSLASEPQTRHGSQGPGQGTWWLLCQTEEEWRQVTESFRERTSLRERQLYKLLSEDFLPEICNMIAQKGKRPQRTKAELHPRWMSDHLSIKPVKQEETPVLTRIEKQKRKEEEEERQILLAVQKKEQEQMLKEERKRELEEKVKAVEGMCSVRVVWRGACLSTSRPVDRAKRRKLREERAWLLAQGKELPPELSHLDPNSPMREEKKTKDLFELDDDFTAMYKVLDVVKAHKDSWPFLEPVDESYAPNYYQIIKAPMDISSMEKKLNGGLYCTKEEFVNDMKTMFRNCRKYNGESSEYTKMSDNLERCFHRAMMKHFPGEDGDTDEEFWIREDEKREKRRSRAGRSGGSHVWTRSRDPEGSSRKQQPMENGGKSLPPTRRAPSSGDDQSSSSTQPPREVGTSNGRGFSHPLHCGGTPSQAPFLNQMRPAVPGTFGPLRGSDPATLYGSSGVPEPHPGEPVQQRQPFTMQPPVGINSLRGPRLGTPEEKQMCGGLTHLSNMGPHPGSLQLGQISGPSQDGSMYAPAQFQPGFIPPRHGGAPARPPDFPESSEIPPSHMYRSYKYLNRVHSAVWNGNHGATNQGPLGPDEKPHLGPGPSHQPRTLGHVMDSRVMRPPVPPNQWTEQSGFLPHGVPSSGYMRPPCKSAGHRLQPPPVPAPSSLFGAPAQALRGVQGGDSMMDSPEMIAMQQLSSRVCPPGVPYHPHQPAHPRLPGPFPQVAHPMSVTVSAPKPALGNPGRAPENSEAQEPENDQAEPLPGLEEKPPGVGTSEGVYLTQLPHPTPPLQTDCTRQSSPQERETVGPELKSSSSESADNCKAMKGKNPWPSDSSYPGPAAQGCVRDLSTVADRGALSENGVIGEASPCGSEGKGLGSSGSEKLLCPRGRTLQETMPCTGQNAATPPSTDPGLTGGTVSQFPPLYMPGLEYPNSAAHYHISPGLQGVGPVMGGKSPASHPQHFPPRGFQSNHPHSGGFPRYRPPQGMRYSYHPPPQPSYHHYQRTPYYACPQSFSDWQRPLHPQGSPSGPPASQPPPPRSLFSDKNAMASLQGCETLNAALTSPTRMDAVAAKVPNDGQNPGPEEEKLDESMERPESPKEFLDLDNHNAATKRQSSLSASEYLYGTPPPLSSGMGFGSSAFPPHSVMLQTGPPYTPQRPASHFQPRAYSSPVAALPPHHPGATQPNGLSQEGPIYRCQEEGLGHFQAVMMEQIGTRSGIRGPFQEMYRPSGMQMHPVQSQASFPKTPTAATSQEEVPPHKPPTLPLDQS
5-hydroxytryptamine receptor 6 (Homo sapiens), sequence (P50406 whole entry, the tested form may be a part): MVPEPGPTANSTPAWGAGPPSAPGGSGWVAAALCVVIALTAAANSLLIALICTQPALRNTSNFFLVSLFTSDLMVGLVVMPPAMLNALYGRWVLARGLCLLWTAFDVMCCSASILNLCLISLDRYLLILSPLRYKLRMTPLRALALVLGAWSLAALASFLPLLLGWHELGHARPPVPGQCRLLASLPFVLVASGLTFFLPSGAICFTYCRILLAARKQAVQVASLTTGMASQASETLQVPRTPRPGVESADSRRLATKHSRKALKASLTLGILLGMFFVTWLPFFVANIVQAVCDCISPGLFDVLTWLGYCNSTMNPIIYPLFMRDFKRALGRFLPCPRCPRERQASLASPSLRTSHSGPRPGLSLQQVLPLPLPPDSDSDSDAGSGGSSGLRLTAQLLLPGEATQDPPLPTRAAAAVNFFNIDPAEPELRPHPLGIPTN
Bromodomain and PHD finger-containing protein 3 (Homo sapiens), sequence (Q9ULD4 whole entry): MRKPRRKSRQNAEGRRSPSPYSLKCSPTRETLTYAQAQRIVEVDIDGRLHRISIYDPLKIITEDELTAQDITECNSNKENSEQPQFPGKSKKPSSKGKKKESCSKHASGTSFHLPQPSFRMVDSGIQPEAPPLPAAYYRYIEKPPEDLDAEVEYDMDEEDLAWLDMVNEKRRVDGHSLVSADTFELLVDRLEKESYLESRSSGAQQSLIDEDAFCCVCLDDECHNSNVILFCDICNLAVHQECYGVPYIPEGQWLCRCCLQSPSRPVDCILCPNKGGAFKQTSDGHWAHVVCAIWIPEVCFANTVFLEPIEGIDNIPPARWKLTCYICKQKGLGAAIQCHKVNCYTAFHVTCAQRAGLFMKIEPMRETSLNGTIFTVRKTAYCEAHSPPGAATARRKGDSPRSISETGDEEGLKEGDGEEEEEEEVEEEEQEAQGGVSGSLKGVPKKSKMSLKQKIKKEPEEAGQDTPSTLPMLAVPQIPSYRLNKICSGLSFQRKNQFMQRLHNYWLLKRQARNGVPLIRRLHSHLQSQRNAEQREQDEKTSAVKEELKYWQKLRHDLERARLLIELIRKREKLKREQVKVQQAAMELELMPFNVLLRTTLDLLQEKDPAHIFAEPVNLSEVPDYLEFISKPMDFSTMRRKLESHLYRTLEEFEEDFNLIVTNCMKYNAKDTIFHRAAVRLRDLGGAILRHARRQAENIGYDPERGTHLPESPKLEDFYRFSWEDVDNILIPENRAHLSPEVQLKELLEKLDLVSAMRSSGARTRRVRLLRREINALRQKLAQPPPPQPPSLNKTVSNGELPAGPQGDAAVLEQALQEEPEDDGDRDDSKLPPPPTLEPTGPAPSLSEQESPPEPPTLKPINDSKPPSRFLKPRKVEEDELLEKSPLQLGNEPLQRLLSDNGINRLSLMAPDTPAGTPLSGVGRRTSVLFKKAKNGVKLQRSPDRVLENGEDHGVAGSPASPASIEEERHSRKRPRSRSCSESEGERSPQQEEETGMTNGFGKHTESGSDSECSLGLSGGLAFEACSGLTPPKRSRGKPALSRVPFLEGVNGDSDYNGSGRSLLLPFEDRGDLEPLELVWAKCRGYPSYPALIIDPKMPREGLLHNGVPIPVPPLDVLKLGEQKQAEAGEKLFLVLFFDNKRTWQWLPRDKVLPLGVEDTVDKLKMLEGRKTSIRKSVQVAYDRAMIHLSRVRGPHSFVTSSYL
Serine/threonine-protein kinase pim-1, sequence (P11309 whole entry): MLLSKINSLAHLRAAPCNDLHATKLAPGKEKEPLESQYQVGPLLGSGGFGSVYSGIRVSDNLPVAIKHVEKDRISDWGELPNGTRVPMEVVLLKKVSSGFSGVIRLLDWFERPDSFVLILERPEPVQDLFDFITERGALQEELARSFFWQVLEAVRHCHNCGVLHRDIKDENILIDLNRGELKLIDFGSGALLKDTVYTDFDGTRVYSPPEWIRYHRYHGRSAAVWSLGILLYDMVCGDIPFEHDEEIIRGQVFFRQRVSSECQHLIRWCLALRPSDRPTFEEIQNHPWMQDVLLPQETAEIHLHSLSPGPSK
Protein AF-9 (Homo sapiens), sequence (P42568 whole entry): as the sequence (P42568 whole entry, the tested form may be a part) above

SMILES: COc1cc2c(cc1NS(=O)(=O)c1ccc(Br)cc1C)n(C)c(=O)n2C
- % of inhibition [7]: 82%
- dTm [8]: 3.1 K
- % of inhibition [9]: 53%
- dTm [10]: 2.1 K
- dTm [11]: 6.5 K
- dTm [12]: 3.3 K
- IC50 [13]: 2.2 µM
- % of inhibition [14]: 54%

SMILES: CN(C)C(=O)c1ccc(-c2cc(C(=O)N(C)C3CCCC3)no2)cc1O
- IC50 [15]: > 30 µM
- IC50 [16]: > 30 µM

SMILES: C[C@H]1CCCN1Cc1nc2cc(NC(=O)c3ccc4cnccc4c3)ccc2[nH]1
- IC50 [23]: 0.25 µM
- IC50 [24]: > 20 µM
- IC50 [25]: > 20 µM
- IC50 [26]: 3.5 µM
- Kd [27]: 0.075 µM
- IC50 [28]: 1.8 µM
- IC50 [29]: 8.6 µM
- IC50 [30]: 8.7 µM
- Kd [31]: 0.109 µM
- IC50 [32]: > 40 µM
- IC50 [33]: 0.29 µM

The remaining lines, values ahead:

- dTm [1]: 5.13 K
- Kd [2]: 0.076 µM
- IC50 [3]: > 40 µM
- IC50 [4]: > 40 µM
- Kd [5]: 0.11 µM
- dTm [6]: 3.61 K
SMILES: CN(C)C(=O)c1ccc(-c2cc(C(=O)N[C@@H]3CCc4ccccc43)no2)cc1O

- IC50 [17]: 0.008 µM
SMILES: Cn1cc(-c2[nH]c3cc(NC(=O)[C@H](N)C4CCCCC4)cc4c3c2C=NNC4=O)cn1

- IC50 [18]: 4 µM
- IC50 [19]: 0.44 µM
- IC50 [20]: 3.6 µM
- dTm [21]: 9.2 K
- IC50 [22]: 13 µM
SMILES: O=C(/C=C/N1C[C@H]2C[C@@H]1CN2c1ccccn1)c1ccccc1O
